From BindingDB's records for doi:10.1021/acs.biochem.5b00431 (University of California Irvine, 2015)

Biological target: T1, Nitric oxide synthase oxygenase (Bacillus subtilis (strain 168), UniProt O34453)
T1 sequence (O34453 whole entry): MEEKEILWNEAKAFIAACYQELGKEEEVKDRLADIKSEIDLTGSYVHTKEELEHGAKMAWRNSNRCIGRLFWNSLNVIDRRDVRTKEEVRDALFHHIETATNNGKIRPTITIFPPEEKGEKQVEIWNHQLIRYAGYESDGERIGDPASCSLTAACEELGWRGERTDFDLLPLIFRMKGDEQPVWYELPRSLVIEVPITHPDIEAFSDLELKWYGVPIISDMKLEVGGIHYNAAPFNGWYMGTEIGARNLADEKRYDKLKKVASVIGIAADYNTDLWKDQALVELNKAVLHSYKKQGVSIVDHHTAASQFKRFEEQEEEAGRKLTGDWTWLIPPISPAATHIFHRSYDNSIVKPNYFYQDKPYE
Test: Imidazole Spin Shift Assay

## N=C(Nc1cccc(CCc2cccc(NC(=N)c3cccs3)c2)c1)c1cccs1 [N-(3-{2-[3-(thiophene-2-imidamido)phenyl]ethyl}phenyl)thiophene-2-carboximidamide (19)]
  Kd: 99 µM

## N=C(Nc1cccc(CNC[C@@H]2CCCN2)c1)c1cccs1 [N-[3-({[(2S)-pyrrolidin-2-ylmethyl]amino}methyl)phenyl]thiophene-2-carboximidamide (20)]
  Kd: 17.8 µM

## CNCCN(C)c1cccc(CCc2cc(C)cc(N)n2)c1 [4-methyl-6-[2-(3-{methyl[2-(methylamino)ethyl]amino}phenyl)ethyl]pyridin-2-amine (13)]
  Kd: 50.5 µM

## N=C(Nc1cccc(COC[C@H]2C[C@H](OCc3cccc(NC(=N)c4cccs4)c3)CN2)c1)c1cccs1 [N-[3-({[(3S,5R)-5-({[3-(thiophene-2-imidamido)phenyl]methoxy}methyl)pyrrolidin-3-yl]oxy}methyl)phenyl]-2H-1λ⁴-thiophene-2-carboximidamide (28)]
  Kd: 7.73 µM

## NC(=Nc1cccc(OCCOc2cccc(N=C(N)c3cccs3)c2)c1)c1cccs1 [N-(3-{2-[3-(thiophene-2-imidamido)phenoxy]ethoxy}phenyl)thiophene-2-carboximidamide (26)]
  Kd: 127 µM

## Cc1cc(N)nc(CCc2ccc(CCCN)c(CCc3cc(C)cc(N)n3)c2)c1
  Kd: 8.61 µM

## CNCCN(c1cc(F)cc(CCc2cc(C)cc(N)n2)c1)C1CC1 [6-[2-(3-{cyclopropyl[2-(methylamino)ethyl]amino}-5-fluorophenyl)ethyl]-4-methylpyridin-2-amine (18)]
  Kd: 62.1 µM

## CNCCN(C)c1cncc(CCc2cc(C)cc(N)n2)c1 [4-methyl-6-[2-(5-{methyl[2-(methylamino)ethyl]amino}pyridin-3-yl)ethyl]pyridin-2-amine (14)]
  Kd: 57.6 µM

## N=C(Nc1cccc(COC[C@@H]2C[C@H](OCc3cccc(NC(=N)c4cccs4)c3)CN2)c1)c1cccs1 [N-[3-({[(3S,5S)-5-({[3-(thiophene-2-imidamido)phenyl]methoxy}methyl)pyrrolidin-3-yl]oxy}methyl)phenyl]-2H-1λ⁴-thiophene-2-carboximidamide (25)]
  Kd: 11 µM

## Cc1cc(N)nc(CCc2cccc([C@H](N)Cc3cc(C)cc(N)n3)c2)c1
  Kd: 25.6 µM

## Cc1cc(N)nc(CCc2cc(C#N)cc(CCc3cc(C)cc(N)n3)c2)c1
  Kd: 4.47 µM

## Cc1cc(N)nc(CCc2cncc(CCc3cc(C)nc(N)c3)c2)c1 [6-(2-{5-[2-(2-amino-6-methylpyridin-4-yl)ethyl]pyridin-3-yl}ethyl)-4-methylpyridin-2-amine]
  Kd: 5.03 µM
